# Assay results: US7928186B2, “Cell permeable bioactive peptide conjugates” (Phoenix Pharmaceuticals, Inc., priority 2006, dated 2011)
# Bridge positions count the residues as written; N and C are the ends. Ends that are not written are not given here. * marks the point of attachment. Acm = CC(=O)NC*
# Key:
# [1] = system: dissociate and cultured cortical neurons; assay: Mobilization of intracellular Ca2+ in dissociate cultured cortical neurons (Fura-2 AM fluorescence); assay type: cell-based, rat (newborn Sprague-Dawley)
# Excerpt: Neurons can be isolated from cerebral cortex according to the protocols for postnatal dissociated nuerons as disclosed for example by Huettner, J. E. and Baughman, R. W., Primary Culture of Identified Neurons From the Visual Cortex of Postnatal Rats, Journal of Neurosciences 6; 3044-3060 (1986); Brewer, G. J., Isolation and Culture of Adult Rat Hippocampal Neurons, Journal of Neuroscience Methods, 71:143-155 (1997); and Brailoiu et al., NAADP Potentiates Neurite Outgrowth, Journal of Biological Chemistry (in press), each hereby incorporated by reference. Newborn Sprague-Dawley rates (about 1 day to about 4 days old) were killed by cervical dislocation. Cerebral cortex was removed and quickly immersed in ice-cold phosphate buffer solution. After removal of meninges, tissue was minced into about I-millimeter blocks, incubated for about 45 minutes at 37° C. in Hanks balanced salt solution without Ca^2+ and Mg^2+ (Invitrogen, 1600 Faraday Avenue, Carlsbad, Calif. 92008) and supplemented with about 200 ug/mL penicillin, 0.1% EDTA and papain 0.15 mg/mL (Sigma-Aldrich, St. Louis, Mo.). In accordance with the procedure disclosed by Brewer, the tissue can be further dissociated by gentle mechanical trituration. After centrifugation at 500×g, cells can be re-suspended in fetal serum free media containing Neurobasal-ATM medium supplemented with […], 100 unites penicillin, 100 ug streptomycin, and B27 supplement all of which can be obtained for example from Invitrogen. The resulting cells can be plated at a low density of about 10^4 on round glass coverslips in twenty four well plates. Neurons were cultured at 37° C. in […] and 5% carbon dioxide for about 3 days to about 5 days. The mitotic inhibitor, cytosine P-arabino furanosidde (about 1 μM) which can be obtained from Sigma-Aldrich can be added to cultured neurons to inhibit glial cell proliferation according to the procedure disclosed by Billingsley, M. L. and Mandel, H. G., Effects of DNA Synthesis Inhibitors on Post-Traumatic Glial Cell Proliferation, Journal of Pharmacology and Experimental Therapeutics, 222: 765-770 (1982).
# Measurement of mobilized intracellular calcium ion (Ca^2+) in dissociate cultured neurons in response to peptide fragments of HIV-1 Tat polypeptides can be performed as disclosed by Brailoiu E. et al. Neurons cultured about 24 hours on coverslips as above-described were loaded in HBBS with 5μ Fura-2 AM dye at room temperature (about 20° C.) for about 45 minutes in the dark, then washed three times with Fura-2 AM free buffer and allowed to incubate to allow de-esterification of the dye for about 45 minutes. Under these conditions, compartmentalization of the dye was minimal (about 9.2%±0.2% n=6) as judged from the ratio of fluorescence signals after selective permeabilization of the plasma membrane (10 μM β-escein) and full permeabilization of the cultured cells (60 μg/mL saponin). The coverslips were mounted in a custom designed bath on the stage of a S300 Axiovert […] inverted microscope equipped with a C&L Instruments fluorimeter as described by Brailoiu et al. The Fura-2 fluorescent signal was calibrated by successive addition of 20 μg/mL digitonin, 20 mM EDTA, and 0.5 mM MnCl2.
# Table 1. Effect of HIV1-Tat Polypeptides on [Ca^2+] Response in Dissociate and Cultured Cortical Neurons
# [2] = system: rat medulla oblongata (NTS, RVLM); settings: cited from earlier work
# [3] = system: humans; settings: infusion of normal postprandial concentrations, over 24 h; cited from earlier work
substance,measurement,setting,value
HIV1 61-80 (NSQTHQASLSKQPTSQPRGD; Human immunodeficiency virus type 1) [peptide fragment of the C-terminal region of the HIV1 30-86 peptide],[Ca^2+] response,[1]; n = 5-10,56 ± 20 nM
HIV1 32-62 (Cys34-Cys37): HIV1 Tat polypeptide fragment 32-62 with Cys34-Cys37 disulfide (FHCQVCFITKALGISYGRKKRRQRRRAHQNS; disulfide 3-6),[Ca^2+] response,[1]; n = 5-10,752 ± 59 nM
"Apelin: endogenous ligands at the orphan G-protein coupled receptor, APJ (QRPRLSHKGPMPF; Apelin-13; UniProt Q9ULZ1 65-77, looked up)",increase in arterial pressure,[2]; microinjection into either of the NTS and the RVLM,10-20 mm Hg
same,decreased phrenic nerve discharge amplitude,[2]; microinjection into the NTS,up to 30%
HIV1 30-57 (Cys31-Cys37)(Cys 31-ACM)(Cys34-ACM) (C(Acm)CFHC(Acm)QVCFITKALGISYGRKKRRQRRR; disulfide 2-8) [HIV1 30-48 (Cys 30 ACM)(Cys 31-Cys 37 disulfide)(Cys 34 ACM) with transport region HIV1 49-57],[Ca^2+] response,[1]; n = 5-10,197 ± 35 nM
"RKKRRQRRR (Human immunodeficiency virus type 1) [HIV1 49-57, Tat transduction domain, transport peptide region alone]",[Ca^2+] response,[1]; n = 5-10,No Response
"HIV1 30-57 (Cys30-Cys31)(Cys 34-Cys37) (CCFHCQVCFITKALGISYGRKKRRQRRR; disulfide 1-2, 5-8) [HIV1 30-57 (Cys30-Cys31)(Cys34-Cys37)]",[Ca^2+] response,[1]; n = 5-10,258 ± 54 nM
HIV1 62-86 (SQTHQASLSKQPTSQPRGDPTGPKE; Human immunodeficiency virus type 1) [peptide fragment of the C-terminal region of the HIV1 30-86 peptide],[Ca^2+] response,[1]; n = 5-10,No Response
"HIV1 30-57 (Cys30-Cys37)(Cys 31-Cys34) (CCFHCQVCFITKALGISYGRKKRRQRRR; disulfide 1-8, 2-5) [HIV1 30-57 (Cys30-Cys37)(Cys31-Cys34), 14]",[Ca^2+] response,[1]; n = 5-10,197 ± 46 nM
HIV1 48-84 (GRKKRRQRRRAHQNSQTHQASLSKQPTSQPRGDPTGP; Human immunodeficiency virus type 1) [peptide fragment of the HIV1 30-86 peptide],[Ca^2+] response,[1]; n = 5-10,80 ± 28 nM
"HIV1 30-47 (Cys30-Cys34)(Cys31-Cys37) (CCFHCQVCFITKALGISY; disulfide 1-5, 2-8) [HIV1 30-47 (Cys 30-Cys34)(Cys 31-Cys37), HIV1 Tat fragment which lacks the second transport peptide region]",[Ca^2+] response,"[1]; n = 5-10 in a column of its own, listed as 30-47 (Cys 30-Cys34)(Cys 31-Cys37)",No Response
same,[Ca^2+] response,"[1]; n = 5-10 in a column of its own, listed as HIV1 30-47 (Cys30-Cys34)(Cys31-Cys37)",cannot mobilize intracellular calcium ion
"HIV1 30-57 (Cys30-Cys34)(Cys 31-Cys37) (CCFHCQVCFITKALGISYGRKKRRQRRR; disulfide 1-5, 2-8) [HIV1 30-57 (Cys30-Cys34)(Cys31-Cys37)]",[Ca^2+] response,[1]; n = 5-10,528 ± 60 nM
"HIV1 30-86 (Cys30-Cys34)(Cys31-Cys37) (CCFHCQVCFITKALGISYGRKKRRQRRRAHQNSQTHQASLSKQPTSQPRGDPTGPKE; disulfide 1-5, 2-8)",[Ca^2+] response,[1]; n = 5-10,390 ± 21 nM
Peptide YY(3-36) [PYY(3-36)],reduction of food intake,[3],33%
HIV1 41-60 (KALGISYGRKKRRQRRRAHQ; Human immunodeficiency virus type 1) [peptide fragment of the HIV1 30-86 peptide],[Ca^2+] response,[1]; n = 5-10,66 ± 13 nM
HIV1 58-86 (AHQNSQTHQASLSKQPTSQPRGDPTGPKE; Human immunodeficiency virus type 1) [peptide fragment of the C-terminal region of the HIV1 30-86 peptide],[Ca^2+] response,[1]; n = 5-10,54 ± 28 nM
